{"source": "patent US20190175671A1", "about": "“MICRORNA 22 REGULATORS COMPOSITIONS AND METHODS AND USES THEREOF” (priority 2017, published 2019)", "key": {"microRNA 22": {"tested_on": "microRNA 22", "settings": "pancreatic cancer cells; cited from earlier work"}, "[1]": {"tested_on": "Interferon Regulatory Factor 9", "settings": "cited from earlier work"}, "MIR22HG": {"tested_on": "MIR22HG", "assay": "Expression of long non-coding RNA MIR22HG"}}}
{"smiles": "COc1cc(/C=C/C(=O)CC(=O)/C=C/c2ccc(O)c(OC)c2)ccc1O", "note": "[curcumin, diferuloylmethane]", "values": [{"measurement": "expression of microRNA 22", "setting": "microRNA 22", "value": "upregulation"}]}
{"smiles": "CC(=O)Nc1ccc(O)cc1", "note": "[Acetaminophen]", "values": [{"measurement": "effect on IRF9", "setting": "[1]", "value": "inhibitor"}]}
{"smiles": "CC(NCCC(c1ccccc1)c1ccccc1)c1ccccc1", "note": "(stereo not drawn) [Fendiline]", "values": [{"measurement": "expression of lncRNA MIR22HG", "setting": "MIR22HG", "value": "upregulates"}]}
